{"source": "patent US20260007639A1", "about": "“COMPOUNDS FOR THE TREATMENT OF NEUROMUSCULAR DISORDERS” (NMD PHARMA A/S, priority 2017, published 2026)", "tested_on": "rat soleus muscles", "assay": "Mg2+ concentration required to depress nerve-stimulated force by 50% (Kd,Mg2+), combination with 3,4-AP (Table 5)", "details": "pre-incubation with 10 μM 3,4-AP", "experimental": "Muscles from 4-week-old rats were stimulated to contract by activating the motor nerve with short duration pulses in field stimulation. Muscles contracted every 10 min for 2 s in response to 30 Hz stimulation. Four different experimental conditions were used. […] FIG. 6C similar to FIG. 6A but this muscle had been pre-incubated with 3,4-AP. […] The force integral (AUC) was determined at each extracellular Mg^2+ concentration. AUC was plotted against Mg^2+ concentration and the data was fitted to a sigmoidal function. This provided the extracellular Mg^2+ concentration that was required to reduce the nerve-stimulated force to 50% (Mg50) under the four different conditions (see Table 4).\nWhile the use of tubocurarine mimics conditions with reduced neuromuscular transmission due to post-synaptic dysfunction (myasthenia gravis, neuromuscular blockade), the experiments with elevated extracellular Mg^2+ mimics conditions with pre-synaptic dysfunction akin to a range of neuromuscular disorders including Lambert Eaton syndrome, motor neuron disorders and polyneuropathy. […] Based on this it was determined whether recovery of nerve-stimulated force at elevated extracellular Mg^2+ with CIC-1 inhibiting compounds could be added to force recovery with 3,4-AP. […] To quantify the effect of compounds on Mg^2+ sensitivity the force at the different Mg^2+ concentrations was determined. […]"}
{"compound": "Nc1ccncc1N", "note": "[3,4-AP, 3,4-diaminopyridine]", "values": [{"measurement": "nerve-stimulated force at elevated Mg2+ compared to control", "value": "remain elevated"}]}
